{"source": "ChEMBL document CHEMBL4419175", "about": "“Compositions for treatment, diagnosis and prognosis of diseases” (2016)", "key": {"[1]": {"tested_on": "PC-3", "assay": "Antiproliferation activity against human PC3 cells assessed as cell proliferation at 10 uM by MTS assay", "format": "functional", "details": "read-out: Activity"}, "[2]": {"tested_on": "PC-3", "assay": "Antiproliferation activity against human PC3 cells assessed as cell proliferation at 50 uM by MTS assay", "format": "functional", "details": "read-out: Activity"}, "[3]": {"tested_on": "PC-3", "assay": "Inhibition of PIP5K1alpha protein expression in human PC3 cells at 20 uM incubated for 48 hrs by immunoblot analysis", "format": "functional, cell-based"}, "[4]": {"tested_on": "CWR22R", "assay": "Antiproliferation activity against human 22Rv1 cells assessed as cell proliferation at 10 to 50 uM by MTS assay", "format": "functional, cell-based"}, "[5]": {"target": "Phosphatidylinositol 4-phosphate 5-kinase type-1 alpha (Homo sapiens) (UniProt Q99755)", "sequence (Q99755 whole entry)": "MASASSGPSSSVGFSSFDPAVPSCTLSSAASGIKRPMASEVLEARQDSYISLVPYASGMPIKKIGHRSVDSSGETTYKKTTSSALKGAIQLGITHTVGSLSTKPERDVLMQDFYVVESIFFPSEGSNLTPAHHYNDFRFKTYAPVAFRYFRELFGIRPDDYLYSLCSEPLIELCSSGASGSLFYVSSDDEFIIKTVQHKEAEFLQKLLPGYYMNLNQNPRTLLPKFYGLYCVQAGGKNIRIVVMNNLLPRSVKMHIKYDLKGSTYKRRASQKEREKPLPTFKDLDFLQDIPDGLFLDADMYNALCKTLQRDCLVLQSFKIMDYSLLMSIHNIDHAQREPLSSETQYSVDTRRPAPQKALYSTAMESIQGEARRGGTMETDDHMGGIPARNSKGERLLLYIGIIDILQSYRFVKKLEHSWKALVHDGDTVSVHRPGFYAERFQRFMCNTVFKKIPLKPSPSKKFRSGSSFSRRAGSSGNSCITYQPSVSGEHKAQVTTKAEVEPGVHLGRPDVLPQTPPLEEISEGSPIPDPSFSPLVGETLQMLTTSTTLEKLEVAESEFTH", "assay": "Binding affinity to human PIP5K1alpha"}, "[6]": {"target": "Serine/threonine-protein kinase MARK1 (Homo sapiens) (UniProt Q9P0L2)", "sequence (Q9P0L2 whole entry, looked up)": "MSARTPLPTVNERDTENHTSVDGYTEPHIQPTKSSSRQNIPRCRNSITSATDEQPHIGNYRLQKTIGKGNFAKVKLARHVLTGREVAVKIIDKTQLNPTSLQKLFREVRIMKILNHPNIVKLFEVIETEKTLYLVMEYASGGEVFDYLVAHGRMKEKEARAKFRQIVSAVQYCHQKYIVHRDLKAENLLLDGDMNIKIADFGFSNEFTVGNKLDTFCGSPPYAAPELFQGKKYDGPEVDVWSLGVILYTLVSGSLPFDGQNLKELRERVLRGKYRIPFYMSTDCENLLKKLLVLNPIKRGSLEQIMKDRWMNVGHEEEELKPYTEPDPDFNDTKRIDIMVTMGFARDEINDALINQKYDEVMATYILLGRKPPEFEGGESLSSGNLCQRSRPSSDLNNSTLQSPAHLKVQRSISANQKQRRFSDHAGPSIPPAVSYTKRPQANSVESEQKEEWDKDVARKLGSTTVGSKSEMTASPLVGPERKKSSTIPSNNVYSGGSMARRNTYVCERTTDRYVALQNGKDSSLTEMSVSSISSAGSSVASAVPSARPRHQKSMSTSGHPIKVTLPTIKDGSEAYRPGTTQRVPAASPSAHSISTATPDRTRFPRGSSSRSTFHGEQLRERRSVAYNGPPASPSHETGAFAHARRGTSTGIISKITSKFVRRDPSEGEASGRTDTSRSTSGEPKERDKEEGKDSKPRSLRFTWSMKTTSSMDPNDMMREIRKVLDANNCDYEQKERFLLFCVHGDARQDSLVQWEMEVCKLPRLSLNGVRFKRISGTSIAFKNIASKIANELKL", "assay": "Binding affinity to human MARK1"}, "[7]": {"tested_on": "PC-3", "assay": "Inhibition of PKAR1alpha protein expression in human PC3 cells at 20 uM incubated for 48 hrs by immunoblot analysis", "format": "functional, cell-based"}, "[8]": {"tested_on": "PC-3", "assay": "Antitumor activity against human PC3 cells xenografted in mouse assessed as reduction in volume at 40 mg/kg dosed every second day starting from day 0 and ending on day 20 relative to control", "format": "functional"}, "[9]": {"tested_on": "PC-3", "assay": "Antitumor activity against human PC3 cells xenografted in mouse assessed as reduction in volume at 40 mg/kg co-treated with 10 mg/kg docetaxel dosed every second day starting from day 0 and ending on day 20 (reference value: 500 mm3)", "format": "functional"}, "[10]": {"assay": "Toxicity in mouse xenografted with human PC3 cells assessed as induction of body weight loss at 40 mg/kg co-treated with 10 mg/kg docetaxel dosed every second day starting from day 0 and ending on day 20", "format": "organism-based", "details": "in vivo"}, "[11]": {"assay": "Toxicity in mouse xenografted with human PC3 cells assessed as induction of body weight loss at 40 mg/kg dosed every second day starting from day 0 and ending on day 20", "format": "organism-based", "details": "in vivo"}, "[12]": {"tested_on": "LNCaP", "assay": "Inhibition of PIP5K1alpha protein expression in human LNCAP cells at 20 uM incubated for 48 hrs by immunoblot analysis", "format": "functional, cell-based"}, "[13]": {"tested_on": "LNCaP", "assay": "Inhibition of PIP5K1alpha protein expression in human LNCAP cells assessed as reduction in AKT phosphorylation at Ser473 residues at 20 uM incubated for 48 hrs by immunoblot analysis relative to control", "format": "functional"}, "[14]": {"tested_on": "LNCaP", "assay": "Inhibition of PIP5K1alpha protein expression in human LNCAP cells assessed as reduction in AKT phosphorylation at Ser473 residues at 20 uM incubated for 48 hrs by immunofluorescent analysis relative to control", "format": "functional, cell-based"}, "[15]": {"tested_on": "LNCaP", "assay": "Induction of apoptosis in human LNCAP cells assessed as formation of fragmented nucleus at 20 uM incubated for 48 hrs", "format": "functional, cell-based"}, "[16]": {"tested_on": "LNCaP", "assay": "Effect on CREB phosphorylation in human LNCAP cells at 20 uM incubated for 48 hrs by immunoblot analysis", "format": "functional, cell-based"}, "[17]": {"tested_on": "LNCaP", "assay": "Reduction in CDK1 protein expression in human LNCAP cells at 20 uM incubated for 48 hrs by immunoblot analysis", "format": "functional, cell-based"}, "[18]": {"tested_on": "LNCaP", "assay": "Increase in p27 protein expression in human LNCAP cells at 20 uM incubated for 48 hrs by immunoblot analysis", "format": "functional, cell-based"}, "[19]": {"tested_on": "PC-3", "assay": "Induction of morphological changes in human PC3 cells assessed as reduction in cell size at 50 uM incubated for 48 hrs by live cell imaging system based assay", "format": "functional"}, "[20]": {"tested_on": "PC-3", "assay": "Induction of morphological changes in human PC3 cells assessed as changes in morphology at 50 uM incubated for 48 hrs by live cell imaging system based assay", "format": "functional"}, "[21]": {"tested_on": "PC-3", "assay": "Inhibition of PIP3 protein expression in human PC3 cells at 50 uM incubated for 48 hrs by immunoblot analysis", "format": "functional, cell-based"}, "[22]": {"tested_on": "PC-3", "assay": "Inhibition of PIP5K1alpha protein expression in human PC3 cells assessed as AKT phosphorylation at Ser473 residues at 50 uM incubated for 48 hrs by immunoblot analysis relative to control", "format": "functional", "set-up": "scale not given: the % may be the effect or the level left"}, "[23]": {"tested_on": "PC-3", "assay": "Inhibition of PIP5K1alpha protein expression in human PC3 cells assessed as reduction in cyclin E1 expression at 50 uM incubated for 48 hrs by immunoblot analysis relative to control", "format": "functional, cell-based"}, "[24]": {"tested_on": "PC-3", "assay": "Inhibition of PIP5K1alpha protein expression in human PC3 cells assessed as reduction in cyclin A2 expression at 50 uM incubated for 48 hrs by immunoblot analysis relative to control", "format": "functional, cell-based"}, "[25]": {"tested_on": "PC-3", "assay": "Inhibition of PIP5K1alpha protein expression in human PC3 cells assessed as reduction in CDK1 expression at 50 uM incubated for 48 hrs by immunoblot analysis relative to control", "format": "functional, cell-based"}, "[26]": {"tested_on": "PC-3", "assay": "Inhibition of PIP5K1alpha protein expression in human PC3 cells assessed as reduction in CDK1 phosphorylation at 50 uM incubated for 48 hrs by immunoblot analysis relative to control", "format": "functional, cell-based"}, "[27]": {"tested_on": "PC-3", "assay": "Induction of cell cycle arrest in human PC3 cells assessed as change in accumulation at G2/M phase at 50 uM incubated for 48 hrs by flow cytometry relative to control", "format": "functional"}, "[28]": {"tested_on": "PC-3", "assay": "Inhibition of cell adhesion in human PC3 cells assessed as cell adhesion relative to control", "format": "functional", "set-up": "scale not given: the % may be the effect or the level left"}, "[29]": {"tested_on": "PC-3", "assay": "Inhibition of cell invasion in human PC3 cells assessed as cell invasion relative to control", "format": "functional", "set-up": "scale not given: the % may be the effect or the level left"}, "[30]": {"tested_on": "PC-3", "assay": "Inhibition of PIP5K1alpha protein expression in human PC3 cells assessed as reduction in FAK phosphorylation incubated for 48 hrs by immunoblot analysis relative to control", "format": "functional, cell-based"}, "[31]": {"tested_on": "HCT-116", "assay": "Inhibition of cell proliferation in human HCT116 cells assessed as reduction in viable cell count at 10 to 100 uM incubated for 48 hrs", "format": "functional, cell-based"}, "[32]": {"tested_on": "Caco-2", "assay": "Inhibition of cell proliferation in human Caco2 cells assessed as reduction in viable cell count at 10 to 100 uM incubated for 48 hrs", "format": "functional, cell-based"}, "[33]": {"tested_on": "MDA-MB-231", "assay": "Inhibition of cell proliferation in human MDA-MB-231 cells assessed as reduction in viable cell count at 10 to 100 uM incubated for 48 hrs", "format": "functional, cell-based"}, "[34]": {"tested_on": "U-937", "assay": "Inhibition of cell proliferation in human U937 cells assessed as reduction in viable cell count at 10 to 100 uM incubated for 48 hrs", "format": "functional, cell-based"}, "[35]": {"tested_on": "LNCaP", "assay": "Inhibition of cell proliferation in human LNCAP cells assessed as reduction in viable cell count at 10 to 100 uM incubated for 48 hrs", "format": "functional, cell-based"}, "[36]": {"tested_on": "PC-3", "assay": "Induction of apoptosis in human PC3 cells assessed as viable cells at 50 uM incubated for 48 hrs by Annexin-/7-AAD staining based FACS analysis (reference value: 94.31%)", "format": "functional", "details": "PC-3, 48 h, read-out: Activity"}, "[37]": {"tested_on": "PC-3", "assay": "Induction of apoptosis in human PC3 cells assessed as early apoptotic cells at 50 uM incubated for 48 hrs by Annexin-/7-AAD staining based FACS analysis (reference value: 2.53%)", "format": "functional"}, "[38]": {"tested_on": "PC-3", "assay": "Induction of apoptosis in human PC3 cells assessed as late apoptotic cells at 50 uM incubated for 48 hrs by Annexin-/7-AAD staining based FACS analysis (reference value: 2.83%)", "format": "functional"}, "[39]": {"tested_on": "PC-3", "assay": "Induction of apoptosis in human PC3 cells assessed as necrotic cells at 50 uM incubated for 48 hrs by Annexin-/7-AAD staining based FACS analysis (reference value: 0.32%)", "format": "functional"}}, "note": "Calls of active or inactive are those of the source. The calls are words filed in the database; no cut-off is given here."}
{"compound": "CN1CC(=O)N2[C@H](c3c[nH]c4ccc(Cl)cc34)c3cc4c(cc3C[C@H]2C1=O)OCO4", "values": [{"measurement": "growth at 10 µM", "setting": "[1]", "value": 58.8, "unit": "%"}, {"measurement": "growth at 50 µM", "setting": "[2]", "value": 21.6, "unit": "%"}, {"measurement": "inhibition", "setting": "[3]", "value": "Active"}, {"measurement": "Activity", "setting": "[4]", "value": "Active"}, {"measurement": "Activity", "setting": "[5]", "value": "Active"}, {"measurement": "Activity", "setting": "[6]", "value": "Active"}, {"measurement": "inhibition", "setting": "[7]", "value": "inactive"}, {"measurement": "Activity", "setting": "[8]", "value": 458, "unit": "mm3"}, {"measurement": "Activity", "setting": "[9]", "value": 36, "unit": "mm3"}, {"measurement": "Activity", "setting": "[10]", "value": "Non-Toxic"}, {"measurement": "Activity", "setting": "[11]", "value": "Non-Toxic"}, {"measurement": "inhibition", "setting": "[12]", "value": "Active"}, {"measurement": "inhibition at 20 µM", "setting": "[13]", "value": 75.5, "unit": "%"}, {"measurement": "inhibition", "setting": "[14]", "value": "Active"}, {"measurement": "Activity", "setting": "[15]", "value": "Active"}, {"measurement": "Activity", "setting": "[16]", "value": "inactive"}, {"measurement": "Activity", "setting": "[17]", "value": "Active"}, {"measurement": "Activity", "setting": "[18]", "value": "Active"}, {"measurement": "Activity", "setting": "[19]", "value": "Active"}, {"measurement": "Activity", "setting": "[20]", "value": "Active"}, {"measurement": "Activity", "setting": "[21]", "value": "Active"}, {"measurement": "Activity", "setting": "[22]", "value": 29.77, "unit": "%"}, {"measurement": "inhibition", "setting": "[23]", "value": "Active"}, {"measurement": "inhibition", "setting": "[24]", "value": "Active"}, {"measurement": "inhibition", "setting": "[25]", "value": "Active"}, {"measurement": "inhibition", "setting": "[26]", "value": "Active"}, {"measurement": "Activity", "setting": "[27]", "value": 4.96, "unit": "%"}, {"measurement": "Activity", "setting": "[28]", "value": 38.82, "unit": "%"}, {"measurement": "Activity", "setting": "[29]", "value": 55.96, "unit": "%"}, {"measurement": "inhibition", "setting": "[30]", "value": "Dose-dependent effect"}, {"measurement": "inhibition", "setting": "[31]", "value": "Active"}, {"measurement": "inhibition", "setting": "[32]", "value": "Active"}, {"measurement": "inhibition", "setting": "[33]", "value": "Active"}, {"measurement": "inhibition", "setting": "[34]", "value": "Active"}, {"measurement": "inhibition", "setting": "[35]", "value": "Active"}, {"measurement": "viability at 50 µM", "setting": "[36]", "value": 80.2, "unit": "%"}, {"measurement": "Activity", "setting": "[37]", "value": 9.55, "unit": "%"}, {"measurement": "Activity", "setting": "[38]", "value": 9.42, "unit": "%"}, {"measurement": "Activity", "setting": "[39]", "value": 0.8, "unit": "%"}]}
